US20160280743A1, “BACTERIAL MUTANTS AND METHODS OF USE” (priority 2015, published 2016)
In brackets after ≈: the same amount, converted by molar mass. Where two headings read alike, the source gives them in different places.

Experiments:
[1] = tested on: E. coli WT-Pore (GKCW101, FhuAΔC/Δ4L pore); experiment: microbe, parasite or virus in culture; details: Escherichia coli
Experimental: (§1) Susceptibilities of E. coli and P. aeruginosa cells to different classes of antibiotics were determined by two-fold broth dilution method [1] with following modifications. Cells were grown in Luria-Bertani (LB) broth (tryptone 10 g/L, yeast extract 5 g/L and NaCl 5 g/L) with appropriate selection markers as needed, at 37° C. with shaking at 200 rpm. When needed, at OD600˜0.3, either L-arabinose (final concentration 0.1%) or IPTG (final concentration 0.1 mM) were added to induce the expression of the pore and cells were further incubated until OD600 reached 1.0. MICs of various antimicrobial agents were measured in 96-well micro-titer plates. For this purpose, exponentially growing cells were inoculated at a density of 10^5 cells/ml into wells containing LB medium in the presence of two-fold increasing concentrations of drugs under investigation at constant inducer concentration of 0.1% arabinose for E. coli or 0.1 mM IPTG for P. aeruginosa strains. Cell growth was determined visually or using Spark 10M microplate reader (Tecan) after incubation of the micro-titer plates at 37° C. for 16 h.
(§2) For this purpose, induced cells were dispensed into 96-well microplates with LB medium containing two-fold dilutions of an antibiotic of interest and a respective concentration of an inducer.

[2] = tested on: E. coli BW 25113 (WT); experiment: microbe, parasite or virus in culture; details: Escherichia coli
Experimental: as §1, §2

[3] = tested on: E. coli WT, WT-Pore, ΔTolC, ΔTolC-Pore; format: cell-based, Escherichia coli; details: for Fold MIC change, Efflux, WT-Pore/ΔTolC-Pore / Fold MIC change, Efflux, WT/ΔTolC / Fold MIC change, OM barrier, WT/WT-Pore / Fold MIC change, OM barrier, ΔTolC/ΔTolC-Pore: E. coli
[4] = tested on: E. coli GD102 (ΔTolC); details: for MIC GD102 (ΔTolC) —: E. coli ΔTolC without pore, 0.1% arabinose, LB, 37° C., 16 h
Experimental: as §1, §2

[5] = tested on: E. coli ΔTolC-Pore (GKCW103, FhuAΔC/Δ4L pore); details: 0.1% arabinose, LB, 37° C., 16 h
Experimental: as §1, §2

[6] = tested on: P. aeruginosa PAO1; experiment: microbe, parasite or virus in culture; details: Pseudomonas aeruginosa, PAO1, 16 h, read-out: MIC PAO1 —
Experimental: as §1, §2

[7] = tested on: P. aeruginosa PAO1, PAO1-Pore, Δ3, Δ3-Pore; experiment: Fold MIC change between P. aeruginosa strains (OM barrier, efflux); format: cell-based, Pseudomonas aeruginosa; details: for Fold MIC change, Efflux, PAO1-Pore/Δ3-Pore / Fold MIC change, Efflux, PAO1/Δ3 / Fold MIC change, OM barrier, PAO1/PAO1-Pore / Fold MIC change, OM barrier, Δ3/Δ3-Pore: P. aeruginosa
[8] = tested on: P. aeruginosa PAO1Δ3 (Δ3); details: for MIC Δ3 —: P. aeruginosa Δ3 without pore, 0.1 mM IPTG, LB, 37° C., 16 h
Experimental: as §1, §2

[9] = tested on: P. aeruginosa Δ3-Pore (GKCW116, FhuAΔC/Δ4L pore); experiment: MIC, two-fold broth dilution, P. aeruginosa Δ3-Pore; details: for MIC Δ3 Pore: P. aeruginosa Δ3-Pore, 0.1 mM IPTG, LB, 37° C., 16 h
Experimental: as §1, §2

[10] = tested on: P. aeruginosa PAO1-Pore (GKCW115, FhuAΔC/Δ4L pore); experiment: MIC, two-fold broth dilution, P. aeruginosa PAO1-Pore; details: Pseudomonas aeruginosa
Experimental: as §1, §2

[11] = 16 h, read-out: MIC BW 25113 (WT) Pore
[12] = 16 h, read-out: MIC BW 25113 (WT) —

SMILES | MIC [1, 11] [µg/mL] | MIC [2, 12] [µg/mL] | Fold MIC change, Efflux, WT-Pore/ΔTolC-Pore [3] [fold] | Fold MIC change, Efflux, WT/ΔTolC [3] [fold] | Fold MIC change, OM barrier, WT/WT-Pore [3] [fold] | Fold MIC change, OM barrier, ΔTolC/ΔTolC-Pore [3] [fold] | MIC GD102 (ΔTolC) — [4] [µg/mL] | MIC GD102 (ΔTolC) Pore [5] [µg/mL] | MIC [6] [µg/mL] | Fold MIC change, Efflux, PAO1-Pore/Δ3-Pore [7] [fold] | Fold MIC change, Efflux, PAO1/Δ3 [7] | Fold MIC change, OM barrier, PAO1/PAO1-Pore [7] | Fold MIC change, OM barrier, Δ3/Δ3-Pore [7] [fold] | MIC Δ3 — [8] [µg/mL] | MIC Δ3 Pore [9] [µg/mL] | also measured
[H]/N=C(/N)N[C@H]1[C@H](O)[C@@H](O)[C@H](O[C@@H]2O[C@@H](C)[C@](O)(C=O)[C@H]2O[C@@H]2O[C@@H](CO)[C@H](O)[C@@H](O)[C@@H]2NC)[C@@H](N/C(N)=N\[H])[C@@H]1O [Streptomycin] | 2 | 2 | 1 | 0.5 | 1 | 2 | 4 (≈ 6.88 µM) | 2 (≈ 3.44 µM) | – | – | – | – | – | – | – | –
O=C(N[C@H](CO)[C@H](O)c1ccc([N+](=O)[O-])cc1)C(Cl)Cl [Chloramphenicol] | 2 | 2 | 4 | 4 | 1 | 1 | 0.5 (≈ 1.55 µM) | 0.5 (≈ 1.55 µM) | 8 (≈ 24.8 µM) | 16 | 8 fold | 4 fold | 8 | 1 (≈ 3.09 µM) | 0.125 (≈ 0.387 µM) | –
CC1(C)S[C@@H]2[C@H](NC(=O)[C@H](N)c3ccccc3)C(=O)N2[C@H]1C(=O)O [Ampicillin] | 2 | 16 | – | – | – | – | 8 (≈ 22.9 µM) | 0.5 (≈ 1.43 µM) | – | – | – | – | – | – | – | –
NCC[C@H](O)C(=O)N[C@@H]1C[C@H](N)[C@@H](O[C@H]2O[C@H](CN)[C@@H](O)[C@H](O)[C@H]2O)[C@H](O)[C@H]1O[C@H]1O[C@H](CO)[C@@H](O)[C@H](N)[C@H]1O [Amikacin] | 2 | 2 | 1 | 1 | 1 | 1 | 2 (≈ 3.42 µM) | 2 (≈ 3.42 µM) | 1 (≈ 1.71 µM) | 2 | 1 fold | 0.5 fold | 1 | 1 (≈ 1.71 µM) | 1 (≈ 1.71 µM) | –
C[C@H]1COc2c(N3CCN(C)CC3)c(F)cc3c(=O)c(C(=O)O)cn1c23 [Levofloxacin] | 0.016 | – | – | – | – | – | 0.004 (≈ 0.0111 µM) | 0.004 (≈ 0.0111 µM) | 0.125 (≈ 0.346 µM) | – | – | – | – | – | – | –
CN(C)[C@@H]1C(O)=C(C(N)=O)C(=O)[C@@]2(O)C(O)=C3C(=O)c4c(O)cccc4[C@@](C)(O)[C@H]3C[C@@H]12 [Tetracycline] | 0.25 | 0.5 | 2 | 4 | 2 | 1 | 0.125 (≈ 0.281 µM) | 0.125 (≈ 0.281 µM) | 4 (≈ 9 µM) | 16 | 2 fold | 8 fold | 64 | 2 (≈ 4.5 µM) | 0.031 (≈ 0.0698 µM) | –
CC1(C)S[C@@H]2[C@H](NC(=O)C(C(=O)O)c3ccccc3)C(=O)N2[C@H]1C(=O)O (stereo partly shown) [Carbenicillin] | 0.5 | 4 | 1 | 4 | 8 | 2 | 1 (≈ 2.64 µM) | 0.5 (≈ 1.32 µM) | 32 (≈ 84.6 µM) | 32 | 64 fold | 16 fold | 8 | 0.5 (≈ 1.32 µM) | 0.063 (≈ 0.166 µM) | –
CC[C@H]1OC(=O)[C@H](C)[C@@H](O[C@H]2C[C@@](C)(OC)[C@@H](O)[C@H](C)O2)[C@H](C)[C@@H](O[C@@H]2O[C@H](C)C[C@H](N(C)C)[C@H]2O)[C@](C)(O)C[C@@H](C)C(=O)[C@H](C)[C@@H](O)[C@]1(C)O [Erythromycin] | 4 | 64 | – | – | – | – | 4 (≈ 5.45 µM) | – | – | – | – | – | – | 16 (≈ 21.8 µM) | – | Change of MIC on inactivation of the three major efflux pumps (PAO1 vs Δ3) [7]: 8 fold; MIC ([1]; read-out: MIC in E. coli WT-Pore cells): 1.4 µM; MIC ([10]; PAO1, read-out: MIC in P. aeruginosa PAO1-Pore cells): 1.4 µM; MIC in P. aeruginosa Δ3 cells ([8]; FIG. 5): 21.8 µM (≈ 16 µg/mL); MIC ([2]; read-out: MIC in E. coli WT cells): 87 µM; Additional decrease of MIC in permeabilized ΔTolC-Pore cells ([3]; FIG. 4A): 16 fold; Difference of MICs in E. coli WT and ΔTolC cells ([3]; FIG. 4A): 16 fold; Reduction of MIC by permeabilization of the outer membrane in WT-Pore E. coli ([3]; FIG. 4A): 64 fold; Total potentiation (WT to ΔTolC-Pore) ([3]; FIG. 4A): 512 fold; MIC in E. coli ΔTolC cells ([4]; unchanged in the range of 0.001-0.5% arabinose (FIG. 4A)): 5.5 µM (≈ 4.04 µg/mL); MIC in P. aeruginosa Δ3-Pore cells ([9]; induced, plateau with increasing IPTG (FIG. 5)): 0.085 µM (≈ 0.0624 µg/mL)
CO[C@@H]1[C@@H](OC(N)=O)[C@@H](O)[C@H](Oc2ccc3c(O)c(NC(=O)c4ccc(O)c(CC=C(C)C)c4)c(=O)oc3c2C)OC1(C)C [Novobiocin] | 32 | 128 | 256 | 256 | 4 | 4 | 0.5 (≈ 0.816 µM) | 0.125 (≈ 0.204 µM) | 512 (≈ 836 µM) | 64 | 16 fold | 8 fold | 32 | 32 (≈ 52.2 µM) | 1 (≈ 1.63 µM) | –
Cc1onc(-c2ccccc2Cl)c1C(=O)N[C@@H]1C(=O)N2[C@@H]1SC(C)(C)[C@@H]2C(=O)O [Cloxacillin] | 128 | 512 | 128 | 512 | 4 | 1 | 1 (≈ 2.29 µM) | 1 (≈ 2.29 µM) | > 2050 | 64 | ≧8 fold | ≧4 fold | 16 | 128 (≈ 294 µM) | 8 (≈ 18.4 µM) | –
CO[C@H]1/C=C/O[C@@]2(C)Oc3c(C)c(O)c4c(O)c(c(/C=N/N5CCN(C)CC5)c(O)c4c3C2=O)NC(=O)/C(C)=C\C=C\[C@H](C)[C@H](O)[C@@H](C)[C@@H](O)[C@@H](C)[C@H](OC(C)=O)[C@@H]1C [Rifampicin] | 0.25 | 4 | – | – | – | – | 4 (≈ 4.86 µM) | 0.25 (≈ 0.304 µM) | 16 (≈ 19.4 µM) | – | – | – | – | 16 (≈ 19.4 µM) | 0.5 (≈ 0.608 µM) | MIC ([10]; PAO1, 16 h, read-out: MIC PAO1 Pore): 0.5 µg/mL
CCn1cc(C(=O)O)c(=O)c2ccc(C)nc21 [Nalidixic acid] | 8 | 8 | 8 | 8 | 1 | 1 | 1 (≈ 4.31 µM) | 1 (≈ 4.31 µM) | 64 (≈ 276 µM) | 16 | 8 fold | 2 fold | 4 | 8 (≈ 34.4 µM) | 2 (≈ 8.61 µM) | –
CCC[C@@H]1C[C@@H](C(=O)N[C@@H]([C@H]2O[C@H](SC)[C@H](O)[C@@H](O)[C@H]2O)[C@@H](C)O)N(C)C1 [Lincomycin] | 512 | 512 | 8 | 8 | 1 | 1 | 64 (≈ 157 µM) | 64 (≈ 157 µM) | – | – | – | – | – | – | – | –
Nc1ccc2cc3ccc(N)cc3nc2c1 [Proflavine] | 32 | 32 | 4 | 4 | 1 | 1 | 8 (≈ 38.2 µM) | 8 (≈ 38.2 µM) | – | – | – | – | – | – | – | –
